# Non-standard residues stand in square brackets, D forms with d. Residues, ends and D or L forms follow the SMILES beside them. *: point of attachment. NHPhenethyl = c1ccc(CCN*)cc1; β3hV = CC(C)[C@H](N)CC(=O)O; Cbz = O=C(OCc1ccccc1)*
# Tests used:
# [1] = test system: S. aureus ATCC 43300; assay: MIC/MBC broth microdilution, S. aureus; type: cell-based, Staphylococcus aureus; conditions: S. aureus
# [2] = test system: S. pyogenes ATCC 19615; assay: MIC/MBC broth microdilution, S. pyogenes; type: cell-based, Streptococcus pyogenes; conditions: S. pyogenes
# Method: (§1) S. aureus (ATCC 29213),S. pyogenes (ATCC 19615),Streptococcus agalactiae (ATCC 27956),Escherichia coli (ATCC 25922),Proteus vulgaris (ATCC 6896),K. pneumoniae (ATCC 700603) andP. aeruginosa (ATCC 10145) reference strains, as well asStaphylococcus cohnii, Enterococcus faecalis, Staphylococcus schleiferi, Staphylococcus intermedius and Streptococcus mutans clinical isolates, were used to test the antibacterial activity of the peptidomimetics. Bacteria were aerobically cultured for 18 h at 37 °C in plates with sterilized brain heart infusion (BHI) broth (Sigma-Aldrich, USA) media mixed with bacteriological agar (Sigma-Aldrich, USA) using the streak plate method. After 18 h, BHI broth was inoculated to 0.5 on the McFarland scale and diluted to approximately 10^5 CFU/mL. To achieve a final stock concentration of 1024 μg/mL, the peptidomimetics were dissolved in sterile water, and 5–10% of absolute ethanol or dimethyl sulfoxide (DMSO) was added. The antibacterial activities were determined by using the standard broth microdilution method of the National Committee for Clinical Laboratory Standards. The process involved adding serially diluted peptidomimetics to consecutive wells of a 96-well microtiter plate (Brand, Germany) holding media with microorganisms. The inoculated plates treated with peptides were then placed in an incubator at 37 °C for 18 h. The MIC value was determined as the lowest concentration of peptidomimetic at which there was no obvious growth (equal or more than 90% of the untreated sample). […] The lowest concentration yielding growth in no more than 3 colonies, corresponding to at least a 99.9% kill rate, was taken as MBC. Each biological replicate included control wells with the addition of water, DMSO, and ethanol as respective solvent controls. All experiments were conducted with consistent adherence to growth and sterility controls and were performed at least in technical triplicate with three biological repeats.
# [3] = test system: S. cohnii c.i.; assay: MIC/MBC broth microdilution, S. cohnii; type: cell-based, Staphylococcus cohnii
# Method: as §1
# [4] = test system: E. faecalis c.i.; assay: MIC/MBC broth microdilution, E. faecalis; type: cell-based, Enterococcus faecalis
# Method: as §1
# [5] = test system: S. schleiferi c.i.; assay: MIC/MBC broth microdilution, S. schleiferi; type: cell-based, Staphylococcus schleiferi
# Method: as §1
# [6] = test system: S. agalactiae ATCC 27956; assay: MIC/MBC broth microdilution, S. agalactiae; type: cell-based, Streptococcus agalactiae; conditions: S. agalactiae, water additive EtOH
# Method: as §1
# [7] = test system: S. mutans c.i.; assay: MIC/MBC broth microdilution, S. mutans; type: cell-based, Streptococcus mutans
# Method: as §1
# [8] = test system: E. coli ATCC 25922; assay: MIC/MBC broth microdilution, E. coli; type: cell-based, Escherichia coli
# Method: as §1
# [9] = test system: P. vulgaris ATCC 6896; assay: MIC/MBC broth microdilution, P. vulgaris; type: cell-based, Proteus vulgaris
# Method: as §1
# [10] = test system: K. pneumoniae ATCC 700603; assay: MIC/MBC broth microdilution, K. pneumoniae; type: cell-based
# Method: as §1
# [11] = test system: P. aeruginosa ATCC 10145; assay: MIC/MBC broth microdilution, P. aeruginosa; type: cell-based
# Method: as §1
# [12] = test system: immortalized human keratinocytes (HaCaT); assay: LDH cytotoxicity test, keratinocytes; type: cell-based; conditions: 48 h, 50, 100 and 150 μg/mL, vs 1% Triton X-100
# Method: (§2) In our study, we used two distinct cell types: immortalized human HaCaT keratinocytes (DKFZ, Heidelberg, Germany) and a human dermal fibroblast cell line (46BR.1N). […] Cultures were maintained in a humidified atmosphere with 5% CO2 at 37 °C in 25 cm^2 culture flasks with the medium replenished every 2 days. The condition of the cells was monitored using optical microscopy.
# (§3) Cell death in immortalized human keratinocytes (HaCaT) and fibroblasts (46BR.1N) was measured by quantifying the lactate dehydrogenase (LDH) activity using a commercial kit (Roche, Switzerland). Cells were seeded in 96-well plates at a density of 5000 cells per well in DMEM high glucose medium supplemented with 10% FBS. After 24 h of incubation, the medium was replaced with serum-free medium containing various concentrations of peptidomimetics (50, 100, and 150 μg/mL). After 48 h, supernatants were collected for LDH analysis. Plate readings were taken spectrophotometrically using a 450 nm wavelength. Cell death measurements were normalized to an untreated control (0%), with 1% Triton X-100 detergent used as a positive control to induce maximum LDH release, indicating maximal cytotoxicity. Statistical significance was determined with a Mann–Whitney U test with a statistical significance p ≤ 0.05. Analysis was performed with Statistica software (Krakow, Poland) and graphs were prepared in GraphPad Prism (Boston, USA).
# [13] = test system: fibroblasts (46BR.1N); assay: LDH cytotoxicity test, fibroblasts; type: cell-based; conditions: 48 h, 50, 100 and 150 μg/mL, vs 1% Triton X-100
# Method: as §2, §3
# [14] = test system: immortalized human HaCaT keratinocytes; assay: XTT cell proliferation assay, keratinocytes; type: cell-based; conditions: for effect on proliferation, in words: XTT, 48 and 72 h, 0.01–150 μg/mL
# Method: (§4) In our study, we used two distinct cell types: immortalized human HaCaT keratinocytes (DKFZ, Heidelberg, Germany) and a human dermal fibroblast cell line (46BR.1N). […] Cultures were maintained in a humidified atmosphere with 5% CO2 at 37 °C in 25 cm^2 culture flasks with the medium replenished every 2 days. The condition of the cells was monitored using optical microscopy. […] After 24 h of incubation, the medium was replaced with serum-free HG-DMEM containing appropriate concentrations of peptidomimetics. All solutions used in the experiments were prepared with double-distilled water or with the addition of ethanol under sterile conditions to ensure compatibility with the conditions of the bacteriological assay. For 72 h of incubation, half of the medium was replaced with fresh medium after 48 h, and cells were stimulated with peptides for a second time. The XTT cell proliferation assay was then performed according to the manufacturer’s instructions (Roche, Switzerland). Cells were treated with the peptides for either 48 or 72 h, followed by the addition of XTT reagent, and the plates were then incubated at 37 °C in a 5% CO2 environment for 4 h. Plate readings were taken using a standard plate reader at a wavelength of 490 nm (OD = 490 nm). […] Statistical significance was determined with a Mann–Whitney U test with statistical significance p ≤ 0.05. Analysis was performed with Statistica software, and graphs were prepared in GraphPad Prism.
# [15] = test system: human dermal fibroblast cell line (46BR.1N); assay: XTT cell proliferation assay, fibroblasts; type: cell-based; conditions: for effect on proliferation, in words: XTT, 48 and 72 h, 0.01–150 μg/mL
# Method: as §4
# [16] = up to 150 μg/mL, A-193 and A-179 after 48 h
MIC ([1]; water additive DMSO) [µg/mL],MIC ([4]; water additive DMSO) [µg/mL],MIC ([4]; water additive EtOH) [µg/mL],MIC ([5]; water additive EtOH) [µg/mL],MIC ([7]; water additive EtOH) [µg/mL],MIC ([8]; water additive DMSO) [µg/mL],MIC ([8]; water additive EtOH) [µg/mL],MIC ([9]; water additive DMSO) [µg/mL],MIC ([9]; water additive EtOH) [µg/mL],MIC ([10]; water additive DMSO) [µg/mL],MIC ([10]; water additive EtOH) [µg/mL],MIC ([11]; water additive DMSO) [µg/mL],MIC ([11]; water additive EtOH) [µg/mL],Compound,MBC ([2]; H2O) [µg/mL],MBC ([2]; water additive EtOH) [µg/mL],MBC ([4]; water additive EtOH) [µg/mL],cytotoxicity (LDH) [12],"effect on proliferation, in words [14]","effect on proliferation, in words [15]",also measured
512,512,512,> 512,> 512,> 512,> 512,> 512,> 512,> 512,> 512,> 512,> 512,CC(C)C[C@H](NC(=O)[C@H](CCCNC(=N)N)NC(=O)OCc1ccccc1)C(=O)N[C@H](CC(=O)NCCc1ccccc1)C(C)C [Compound A-152] (Cbz-Arg-Leu-[β3hV]-NHPhenethyl),256,126,512,≤ 50%,pro-proliferating effect at lower concentrations followed by an antiproliferative effect at higher concentrations,pro-proliferating effect at lower concentrations followed by an antiproliferative effect at higher concentrations,MBC ([1]; H2O): 256 µg/mL; MBC ([1]; water additive DMSO): 512 µg/mL; MBC ([2]; water additive DMSO): 256 µg/mL; MBC ([3]; water additive DMSO): 512 µg/mL; MBC ([3]; water additive EtOH): 512 µg/mL; MBC ([4]; water additive DMSO): > 512 µg/mL; MIC ([5]; water additive DMSO): > 512 µg/mL; MBC [6]: 256 µg/mL; MIC ([7]; water additive DMSO): > 512 µg/mL; cytotoxicity (LDH) [13]: ≤ 50%
32,> 512,256,16,32,> 512,512,> 512,> 512,> 512,> 512,256,256,CC(C)[C@@H](CNC(=O)C(=Cc1ccccc1)c1ccccc1)NC(=O)[C@H](Cc1c[nH]cn1)NC(=O)[C@H](CCCNC(=N)N)NC(=O)OCc1ccccc1 [Compound A-176],32,32,512,exceeding 50%,negative impact,negative impact,"MIC ([1]; H2O): 32 µg/mL; MIC ([1]; water additive EtOH): 32 µg/mL; MIC ([2]; H2O): 16 µg/mL; MIC ([2]; water additive DMSO): 16 µg/mL; MIC ([2]; water additive EtOH): 16 µg/mL; MBC ([4]; H2O): 512 µg/mL; MIC ([4]; H2O): 512 µg/mL; MIC ([5]; H2O): 16 µg/mL; MBC ([5]; water additive EtOH): 32 µg/mL; MIC ([7]; H2O): 32 µg/mL; MBC ([8]; H2O): 256 µg/mL; MIC ([8]; H2O): 256 µg/mL; MIC ([9]; H2O): > 512 µg/mL; MIC ([10]; H2O): > 512 µg/mL; MIC ([11]; H2O): 256 µg/mL; MBC ([11]; water additive DMSO): 256 µg/mL; MBC ([11]; water additive EtOH): 256 µg/mL; antiproliferative effect (decrease vs control) [14, 16]: up to 50%; antiproliferative effect (decrease vs control) [15, 16]: up to 50%"
